Data published in patent publication US9675714B1, “Graphene based theranostics for tumor targeted drug/gene delivery and imaging” (University of South Florida, priority 2013, dated 2017).

Tested on: A549 lung cancer cells
Experiment: Cellular uptake and intracellular drug release by confocal laser scanning microscopy
Type: cell-based
Settings: 20 h incubation
Procedure: FIGS. 15A-15F show confocal microscopic images of A549cells after 20 h incubation with doxorubicin (15A-15C) or doxorubicin-CMG nanoparticles (15D-15F). […] Nuclei were stained with DAPI as a control (15A and […]). DAPI and doxorubicin images were merged for comparison (15C-15F).
To test the drug delivery capacity of CMG NPs, DOX was loaded into CMG nanoparticles by physical adsorption. The UV-Vis spectrum of DOX-CMG nanoparticles was used to confirm the loading of DOX onto CMG nanoparticles. […] DOX loading was confirmed by the presence of the characteristic absorbance peak of DOX-CMG at 485 nm (FIG. 12,b), which corresponded to the peak of free DOX (FIG. 12,c). The hydrodynamic diameter of DOX-loaded CMG nanoparticles was about 91 nm and was similar to the CMGs alone (FIGS. 5A-5F). The loading capacity of CMG nanoparticles for DOX was investigated by mixing a fixed concentration of CMG (2 mg/mL) with various initial DOX concentrations as shown in FIG. 13. […] The drug-release kinetics of DOX-CMG nanoparticles was determined at pH about 5.1 and about 7.4 (FIG. 14). […] To determine the effectiveness of the DOX-CMG nanoparticles in killing A549 cancer cells, cells were treated with DOX-CMG nanoparticles with increasing concentrations of DOX, or free DOX, for about 72 h and analyzed using the Presto Blue cell viability assay.

## COc1cccc2c1C(=O)c1c(O)c3c(c(O)c1C2=O)C[C@@](O)(C(=O)CO)C[C@@H]3O[C@H]1C[C@H](N)[C@H](O)[C@H](C)O1 [DOX, doxorubicin]
  subcellular localization of DOX: concentrated in the nuclei
